In the supplement of paper PMC10627819:

Experiments:
S. aureus Newman [1] = test: fitness (endpoint OD595 vs no drug) (fraction); higher = more growth
Procedure, shortened: (§1)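 Bacterial growth was followed in 384-well plates seeded at OD595 0.01, with 30 µl per well, or 55 µl for S. pneumoniae, in TSB, LB Lennox or CY at 37 °C. OD595 was read every 30 min for 14 h, and each reading had the first reading subtracted as background. Fitness is the background-corrected optical density at entry into stationary phase divided by the robust mean of the no-drug control wells. This ratio is capped at 1.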

S. aureus DSM 20231 [2] = test: as above
Procedure, shortened: as §1

S. pneumoniae D39V = test: Bliss interaction score (quartile over a dose matrix) (fitness difference); higher = more antagonism (negative = synergy)
Procedure, shortened: (§2)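 Growth was read as OD595 when cultures entered stationary phase, and each value was divided by the plate's robust no-drug mean and capped at 1. This normalised ratio is the fitness value, and fitness for each single drug came from the combination data. The Bliss score subtracts the expected fitness, taken as the product, from the observed fitness and is given as quartiles across technical, biological and donor/recipient replicates.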

S. aureus Newman [3] = test: as above
Procedure, shortened: as §2

S. aureus DSM 20231 [4] = test: as above
Procedure, shortened: as §2

B. subtilis 168 = test: as above
Procedure, shortened: as §2
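Throughout, for Bliss interaction score (quartile over a dose matrix): first quartile when negative (synergy) and third quartile when positive (antagonism).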

O=C(N[C@H](CO)[C@H](O)c1ccc([N+](=O)[O-])cc1)C(Cl)Cl [Chloramphenicol] + CCC[C@@H]1C[C@@H](C(=O)N[C@@H]([C@H]2O[C@H](SC)[C@H](O)[C@@H](O)[C@H]2O)[C@H](C)Cl)N(C)C1 [Clindamycin]
fitness
Conditions	first compound 0.75 µg/mL	first compound 1.5 µg/mL	first compound 3 µg/mL
S. aureus DSM 20231 [2], partner 0.0312 µg/mL	–	–	0.137
S. aureus DSM 20231 [2], partner 0.0625 µg/mL	0.0956	–	0.0841
S. aureus DSM 20231 [2], partner 0.125 µg/mL	0.0527	0.0897	0.0677
S. aureus Newman [1], partner 0.0312 µg/mL	0.539	0.392	0.11
S. aureus Newman [1], partner 0.0625 µg/mL	–	–	0.0976
S. aureus Newman [1], partner 0.125 µg/mL	0.0906	0.0591	0.0645

Conditions	Bliss interaction score
S. aureus DSM 20231 [4]	0.0541
S. aureus Newman [3]	-0.0758
S. pneumoniae D39V	0.155

O=C(N[C@H](CO)[C@H](O)c1ccc([N+](=O)[O-])cc1)C(Cl)Cl [Chloramphenicol] + C[C@@H](O)[C@H]1C(=O)N2C(C(=O)O)=C(SCCNC=N)C[C@H]12 [Imipenem]
Conditions	Bliss interaction score
S. aureus DSM 20231 [4]	0.0442
S. aureus Newman [3]	-0.0316
S. pneumoniae D39V	-0.0662

O=C(N[C@H](CO)[C@H](O)c1ccc([N+](=O)[O-])cc1)C(Cl)Cl [Chloramphenicol] + COc1cc(Cc2cnc(N)nc2N)cc(OC)c1OC [Trimethoprim]
fitness, S. aureus DSM 20231 [2]
Conditions	partner 0.125 µg/mL	partner 0.25 µg/mL	partner 0.5 µg/mL	partner 1 µg/mL
first compound 0.75 µg/mL	0.613	0.648	0.48	0.0816
first compound 1.5 µg/mL	0.499	0.492	0.405	–
first compound 3 µg/mL	0.0821	0.0908	0.0866	0.0882

Conditions	Bliss interaction score
B. subtilis 168	0.0616
S. aureus DSM 20231 [4]	0.133
S. pneumoniae D39V	-0.081

O=C(N[C@H](CO)[C@H](O)c1ccc([N+](=O)[O-])cc1)C(Cl)Cl [Chloramphenicol] + O=C(O[C@@H]1Cc2c(O)cc(O)cc2O[C@@H]1c1cc(O)c(O)c(O)c1)c1cc(O)c(O)c(O)c1 [EGCG]
fitness
Conditions	first compound 0.75 µg/mL	first compound 1.5 µg/mL	first compound 3 µg/mL
S. aureus DSM 20231 [2], partner 12.5 µg/mL	0.653	0.56	0.15
S. aureus DSM 20231 [2], partner 25 µg/mL	0.646	0.572	0.136
S. aureus DSM 20231 [2], partner 50 µg/mL	0.669	0.494	0.0905
S. aureus Newman [1], partner 12.5 µg/mL	0.649	0.602	0.189
S. aureus Newman [1], partner 25 µg/mL	0.699	–	–
S. aureus Newman [1], partner 50 µg/mL	0.699	0.509	–

Conditions	Bliss interaction score
B. subtilis 168	0.103
S. aureus DSM 20231 [4]	0.0831
S. pneumoniae D39V	-0.0762
